Here are results for ten molecules from ChEMBL document CHEMBL2074340, “Molecular characterization of human and rat organic anion transporter OATP-D” (Am J Physiol Renal Physiol, 2003).

The target in data set [1] is T1, Solute carrier organic anion transporter family member 3A1 (Homo sapiens, UniProt Q9UIG8).
T1 sequence (Q9UIG8 whole entry): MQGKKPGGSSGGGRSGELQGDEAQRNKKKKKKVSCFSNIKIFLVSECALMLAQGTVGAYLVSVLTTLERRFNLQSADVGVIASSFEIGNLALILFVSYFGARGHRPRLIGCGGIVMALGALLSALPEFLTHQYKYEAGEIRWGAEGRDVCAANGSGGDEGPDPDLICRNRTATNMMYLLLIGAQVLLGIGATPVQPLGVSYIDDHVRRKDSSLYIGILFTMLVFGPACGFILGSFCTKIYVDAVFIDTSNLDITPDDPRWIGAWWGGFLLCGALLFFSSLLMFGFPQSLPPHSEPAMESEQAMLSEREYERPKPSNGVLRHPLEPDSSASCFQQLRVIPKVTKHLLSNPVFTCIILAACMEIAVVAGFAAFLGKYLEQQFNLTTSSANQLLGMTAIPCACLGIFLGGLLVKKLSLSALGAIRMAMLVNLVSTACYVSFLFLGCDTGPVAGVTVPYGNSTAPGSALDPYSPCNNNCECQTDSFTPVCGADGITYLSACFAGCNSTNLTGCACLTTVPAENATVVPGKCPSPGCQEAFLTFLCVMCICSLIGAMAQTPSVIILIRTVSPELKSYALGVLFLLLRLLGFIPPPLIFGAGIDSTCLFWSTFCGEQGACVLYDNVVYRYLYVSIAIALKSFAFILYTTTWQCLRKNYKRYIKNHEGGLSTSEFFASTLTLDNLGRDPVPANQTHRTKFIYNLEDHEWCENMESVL
In words: TP_TRANSPORTER: inhibition of PGE2 uptake (PGE2: 0.015 uM) by […] at 0.15uM in Xenopus laevis oocytes. The note with it: oocyte. It counts as functional, cell-based. Set-up: scale not given: the % may be the effect or the level left.

Data set [2] addresses T2, Solute carrier organic anion transporter family member 3A1 (Rattus norvegicus, UniProt Q99N02).
T2 sequence (Q99N02 whole entry): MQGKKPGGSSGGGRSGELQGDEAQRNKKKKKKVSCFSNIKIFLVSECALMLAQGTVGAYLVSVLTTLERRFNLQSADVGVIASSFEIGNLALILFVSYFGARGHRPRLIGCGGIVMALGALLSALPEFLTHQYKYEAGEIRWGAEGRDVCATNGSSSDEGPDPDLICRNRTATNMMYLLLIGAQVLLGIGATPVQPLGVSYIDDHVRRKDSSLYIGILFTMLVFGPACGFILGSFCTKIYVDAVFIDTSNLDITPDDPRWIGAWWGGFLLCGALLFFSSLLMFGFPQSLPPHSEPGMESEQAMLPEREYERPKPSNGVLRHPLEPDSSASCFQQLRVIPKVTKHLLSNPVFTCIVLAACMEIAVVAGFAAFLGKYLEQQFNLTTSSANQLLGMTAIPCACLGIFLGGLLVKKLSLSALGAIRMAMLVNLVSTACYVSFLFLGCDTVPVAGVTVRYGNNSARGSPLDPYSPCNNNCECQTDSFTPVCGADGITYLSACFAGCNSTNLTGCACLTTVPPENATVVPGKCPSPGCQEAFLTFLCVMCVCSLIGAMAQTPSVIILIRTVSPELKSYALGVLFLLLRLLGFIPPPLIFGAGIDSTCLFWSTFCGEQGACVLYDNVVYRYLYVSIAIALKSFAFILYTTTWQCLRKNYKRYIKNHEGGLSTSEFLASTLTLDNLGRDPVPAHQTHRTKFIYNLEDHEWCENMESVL
Nature of the data set: (§1) TP_TRANSPORTER: uptake in Xenopus laevis oocytes. The data set is classed as functional, cell-based. The note with it: oocyte.

For data set [3], the target named is T3, Solute carrier organic anion transporter family member 3A1 (SLCO3A1/OATP3A1) (Homo sapiens, UniProt Q9UIG8).
T3 sequence (Q9UIG8 whole entry): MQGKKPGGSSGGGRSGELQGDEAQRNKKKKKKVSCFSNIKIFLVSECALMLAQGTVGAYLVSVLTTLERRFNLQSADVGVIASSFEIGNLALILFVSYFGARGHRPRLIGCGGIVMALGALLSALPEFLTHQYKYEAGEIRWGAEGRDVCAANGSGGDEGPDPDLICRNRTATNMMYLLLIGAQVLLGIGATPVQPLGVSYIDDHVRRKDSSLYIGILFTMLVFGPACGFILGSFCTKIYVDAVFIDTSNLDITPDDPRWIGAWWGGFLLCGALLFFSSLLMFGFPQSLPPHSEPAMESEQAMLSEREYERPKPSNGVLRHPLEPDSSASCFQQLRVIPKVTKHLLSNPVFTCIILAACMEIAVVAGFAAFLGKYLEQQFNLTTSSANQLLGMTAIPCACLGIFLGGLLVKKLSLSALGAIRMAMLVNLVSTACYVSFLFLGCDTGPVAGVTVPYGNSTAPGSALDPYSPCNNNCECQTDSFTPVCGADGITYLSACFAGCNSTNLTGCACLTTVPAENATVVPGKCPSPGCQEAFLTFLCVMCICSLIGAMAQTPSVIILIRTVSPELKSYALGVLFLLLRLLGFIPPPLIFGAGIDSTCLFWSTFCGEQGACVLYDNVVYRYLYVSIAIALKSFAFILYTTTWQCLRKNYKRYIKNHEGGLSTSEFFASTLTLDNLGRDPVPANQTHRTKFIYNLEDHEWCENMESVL
In words: TP_TRANSPORTER: inhibition of PGE2 uptake (PGE2: 0.015 uM) by Prostaglandin E1 at 0.15uM in Xenopus laevis oocytes. Also on record: scale not given: the % may be the effect or the level left. The data set is classed as functional, cell-based, Oocyte. The following applies: Xenopus laevis oocytes expressing OATP3A1 (SLCO3A1), probe PGE2, read-out: Activity.

In data set [4] the target is T1, Solute carrier organic anion transporter family member 3A1. The data set is described as §1. The following applies: oocyte. The data set is classed as functional, cell-based.
Data set [5] has as its target T3, Solute carrier organic anion transporter family member 3A1 (SLCO3A1/OATP3A1). In words: TP_TRANSPORTER: inhibition of PGE2 uptake (PGE2: 0.015 uM) by Prostaglandin D2 at 0.15uM in Xenopus laevis oocytes. The data set is classed as functional, cell-based, Oocyte. Set-up: scale not given: the % may be the effect or the level left. The note with it: Xenopus laevis oocytes expressing OATP3A1 (SLCO3A1), probe PGE2, read-out: Activity.

Data set [6] has as its target T1, Solute carrier organic anion transporter family member 3A1. Nature of the data set: TP_TRANSPORTER: inhibition of PGE2 uptake (PGE2: 0.015 uM) by Prostaglandin F2alpha at 0.15uM in Xenopus laevis oocytes. The data set is classed as functional, cell-based. Also on record: scale not given: the % may be the effect or the level left. The note with it: oocyte.
Data set [7] has as its target T3, Solute carrier organic anion transporter family member 3A1 (SLCO3A1/OATP3A1). Nature of the data set: TP_TRANSPORTER: inhibition of PGE2 uptake (PGE2: 0.015 uM) by P-aminohippuric acid at 0.15uM in Xenopus laevis oocytes. It counts as functional, cell-based, Oocyte. Also on record: scale not given: the % may be the effect or the level left. The following applies: Xenopus laevis oocytes expressing OATP3A1 (SLCO3A1), probe PGE2, read-out: Activity.

Substrate in data set [8]: CCCCC[C@H](O)/C=C/[C@H]1[C@H](O)CC(=O)[C@@H]1CCCCCCC(=O)O
Described as §1. The data set is classed as functional, cell-based, Oocyte.

Substrate in data set [9]: CC/C=C\C[C@H](O)/C=C/[C@H]1[C@H](O)CC(=O)[C@@H]1C/C=C\CCCC(=O)O
The data set is described as §1. The data set is classed as functional, cell-based, Oocyte.

PROSTAGLANDIN E4: in data set [1], the Activity worked out at 0%.

Regarding `CCCCC[C@H](O)/C=C/[C@H]1[C@H](O)CC(=O)[C@@H]1CCCCCCC(=O)O` [ALPROSTADIL], the Activity entry in data set [2] was “substrate [+]”. In data set [3], the activity at 0.15 µM amounted to 0%. PROSTAGLANDIN E5: the Activity result in [2] was “substrate [+]”. Take `CCCCC[C@H](O)/C=C/[C@H]1C(=O)C[C@H](O)[C@@H]1C/C=C\CCCC(=O)O` [PROSTAGLANDIN D2]: in data set [4], the Activity result was “is not a substrate [-]”. For the same molecule, in data set [5], the activity at 0.15 µM stood at 30%. As for `CCCCC[C@H](O)/C=C/[C@H]1OC(O)C[C@H](O)[C@@H]1C/C=C\CCCC(=O)O` (stereo not given in full) [THROMBOXANE B2], in data set [4], the Activity entry was “is not a substrate [-]”. As to `CCCCC[C@H](O)/C=C/[C@@H]1[C@@H](C/C=C\CCCC(=O)O)[C@@H](O)C[C@H]1O` [DINOPROST], the results for the Activity result in data set [4], in [2] and in data set [6] were “substrate [+]”, “substrate [+]” and 0%, respectively.

As to `CN(Cc1cnc2nc(N)nc(N)c2n1)c1ccc(C(=O)N[C@@H](CCC(=O)O)C(=O)O)cc1` [METHOTREXATE], in data set [4], the Activity entry is “is not a substrate [-]”. `CC#CCC(C)[C@H](O)/C=C/[C@@H]1[C@H]2C/C(=C/CCCC(=O)O)C[C@H]2C[C@H]1O` (stereo not given in full) [ILOPROST]: the Activity result in [4] is “is not a substrate [-]”. With `Nc1ccc(C(=O)NCC(=O)O)cc1` [AMINOHIPPURIC ACID], in data set [7], the activity at 0.15 µM came to 30%.

B1: Solute carrier organic anion transporter family member 3A1 (Homo sapiens) (protein)
chain: MQGKKPGGSSGGGRSGELQGDEAQRNKKKKKKVSCFSNIKIFLVSECALMLAQGTVGAYLVSVLTTLERRFNLQSADVGVIASSFEIGNLALILFVSYFGARGHRPRLIGCGGIVMALGALLSALPEFLTHQYKYEAGEIRWGAEGRDVCAANGSGGDEGPDPDLICRNRTATNMMYLLLIGAQVLLGIGATPVQPLGVSYIDDHVRRKDSSLYIGILFTMLVFGPACGFILGSFCTKIYVDAVFIDTSNLDITPDDPRWIGAWWGGFLLCGALLFFSSLLMFGFPQSLPPHSEPAMESEQAMLSEREYERPKPSNGVLRHPLEPDSSASCFQQLRVIPKVTKHLLSNPVFTCIILAACMEIAVVAGFAAFLGKYLEQQFNLTTSSANQLLGMTAIPCACLGIFLGGLLVKKLSLSALGAIRMAMLVNLVSTACYVSFLFLGCDTGPVAGVTVPYGNSTAPGSALDPYSPCNNNCECQTDSFTPVCGADGITYLSACFAGCNSTNLTGCACLTTVPAENATVVPGKCPSPGCQEAFLTFLCVMCICSLIGAMAQTPSVIILIRTVSPELKSYALGVLFLLLRLLGFIPPPLIFGAGIDSTCLFWSTFCGEQGACVLYDNVVYRYLYVSIAIALKSFAFILYTTTWQCLRKNYKRYIKNHEGGLSTSEFFASTLTLDNLGRDPVPANQTHRTKFIYNLEDHEWCENMESVL
Regarding B1, the figures for the Km in data set [8] and in data set [9] were 0.0485 µM and 0.0555 µM, respectively.
